Reference: ChEMBL document CHEMBL5154787 (J Med Chem, 2022)
pIC50, pKi: −log10 of the molar value.

Assays:
[1] = molecular target: T1, AP2-associated protein kinase 1 (Homo sapiens, UniProt Q2M2I8); assay: Inhibition of bacterially expressed GST-Xa-tagged human AAK1 using 5-FAM-labelled Aha-KEEQSQITSQVTGQIGWR-NH2 peptide as substrate incubated for 3 hrs in presence of ATP by electrophoretic analysis
[2] = molecular target: AP2-associated protein kinase 1 (Mus musculus, UniProt Q3UHJ0); assay: Displacement of 3H-LP-927443 from AAK1 in C57BL6 mouse brain homogenate assessed as inhibition constant incubated for 1 hr by liquid scintillation counter analysis; assay type: tissue-based
[3] = Metabolic stability in human liver microsomes assessed as parent compound remaining at 0.5 uM incubated for 10 mins in presence of NADPH by LC-MS/MS analysis; assay type: ADME, Microsome; details: read-out: Stability
[4] = Metabolic stability in rat liver microsomes assessed as parent compound remaining at 0.5 uM incubated for 10 mins in presence of NADPH by LC-MS/MS analysis; assay type: ADME, Microsome; details: read-out: Stability
[5] = Metabolic stability in mouse liver microsomes assessed as parent compound remaining at 0.5 uM incubated for 10 mins in presence of NADPH by LC-MS/MS analysis; assay type: ADME, Microsome; details: liver microsomes, read-out: Stability
[6] = molecular target: Cytochrome P450 3A4 (Homo sapiens, UniProt P08684); assay: Inhibition of CYP3A4 (unknown origin) incubated for 10 mins in presence of NADPH by LC-MS/MS analysis; assay type: ADME
Chain of Cytochrome P450 3A4 (P08684 whole entry): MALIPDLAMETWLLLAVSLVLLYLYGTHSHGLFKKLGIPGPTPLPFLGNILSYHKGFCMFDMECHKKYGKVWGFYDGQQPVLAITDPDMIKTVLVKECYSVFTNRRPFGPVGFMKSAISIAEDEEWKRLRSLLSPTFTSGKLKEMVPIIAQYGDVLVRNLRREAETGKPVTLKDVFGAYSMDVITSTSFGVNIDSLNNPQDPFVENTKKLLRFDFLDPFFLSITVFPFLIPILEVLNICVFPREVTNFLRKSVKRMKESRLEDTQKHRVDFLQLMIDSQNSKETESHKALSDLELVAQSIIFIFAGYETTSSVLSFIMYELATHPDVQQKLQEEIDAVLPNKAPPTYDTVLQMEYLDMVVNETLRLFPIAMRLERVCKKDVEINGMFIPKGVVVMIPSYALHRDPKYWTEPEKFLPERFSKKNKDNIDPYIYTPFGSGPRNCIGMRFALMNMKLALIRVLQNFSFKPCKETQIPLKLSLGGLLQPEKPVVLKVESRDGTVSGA

[7] = molecular target: BMP-2-inducible protein kinase (Homo sapiens, UniProt Q9NSY1); assay: Inhibition of BIKE (unknown origin)
Chain of BMP-2-inducible protein kinase (Q9NSY1 whole entry): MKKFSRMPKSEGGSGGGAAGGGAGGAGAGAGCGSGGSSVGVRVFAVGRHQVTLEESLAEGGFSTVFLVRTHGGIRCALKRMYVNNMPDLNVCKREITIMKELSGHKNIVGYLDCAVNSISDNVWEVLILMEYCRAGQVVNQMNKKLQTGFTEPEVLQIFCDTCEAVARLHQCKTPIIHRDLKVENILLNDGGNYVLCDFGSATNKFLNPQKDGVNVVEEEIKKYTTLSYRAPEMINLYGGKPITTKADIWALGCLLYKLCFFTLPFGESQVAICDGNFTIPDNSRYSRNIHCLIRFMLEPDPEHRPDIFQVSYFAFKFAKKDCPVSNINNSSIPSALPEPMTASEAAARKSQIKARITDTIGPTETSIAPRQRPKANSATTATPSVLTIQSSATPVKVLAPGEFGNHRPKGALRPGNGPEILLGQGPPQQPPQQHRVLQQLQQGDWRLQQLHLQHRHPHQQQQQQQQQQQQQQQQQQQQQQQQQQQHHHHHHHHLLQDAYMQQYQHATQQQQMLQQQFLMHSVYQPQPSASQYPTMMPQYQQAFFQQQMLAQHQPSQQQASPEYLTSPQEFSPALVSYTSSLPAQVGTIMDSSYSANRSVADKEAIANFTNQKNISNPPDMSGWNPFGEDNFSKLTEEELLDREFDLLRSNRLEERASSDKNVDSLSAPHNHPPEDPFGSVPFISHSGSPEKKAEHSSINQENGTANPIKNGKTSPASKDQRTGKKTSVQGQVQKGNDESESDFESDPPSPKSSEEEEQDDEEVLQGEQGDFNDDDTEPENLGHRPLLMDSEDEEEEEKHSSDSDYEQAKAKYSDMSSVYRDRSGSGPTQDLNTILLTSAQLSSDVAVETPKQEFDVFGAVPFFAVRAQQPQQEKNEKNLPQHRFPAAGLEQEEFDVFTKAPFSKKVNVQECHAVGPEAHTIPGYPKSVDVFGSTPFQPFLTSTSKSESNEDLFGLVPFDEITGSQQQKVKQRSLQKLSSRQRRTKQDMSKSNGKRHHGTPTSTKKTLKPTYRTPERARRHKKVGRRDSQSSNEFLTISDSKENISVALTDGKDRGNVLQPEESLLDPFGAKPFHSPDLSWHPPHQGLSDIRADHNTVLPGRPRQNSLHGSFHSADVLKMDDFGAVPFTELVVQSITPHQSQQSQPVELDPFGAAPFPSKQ

[8] = molecular target: Death-associated protein kinase 1 (Homo sapiens, UniProt P53355); assay: Inhibition of DAPK1 (unknown origin)
[9] = molecular target: T2, Cyclin-G-associated kinase (Homo sapiens, UniProt O14976); assay: Inhibition of GAK (unknown origin)
T2 sequence (O14976 whole entry): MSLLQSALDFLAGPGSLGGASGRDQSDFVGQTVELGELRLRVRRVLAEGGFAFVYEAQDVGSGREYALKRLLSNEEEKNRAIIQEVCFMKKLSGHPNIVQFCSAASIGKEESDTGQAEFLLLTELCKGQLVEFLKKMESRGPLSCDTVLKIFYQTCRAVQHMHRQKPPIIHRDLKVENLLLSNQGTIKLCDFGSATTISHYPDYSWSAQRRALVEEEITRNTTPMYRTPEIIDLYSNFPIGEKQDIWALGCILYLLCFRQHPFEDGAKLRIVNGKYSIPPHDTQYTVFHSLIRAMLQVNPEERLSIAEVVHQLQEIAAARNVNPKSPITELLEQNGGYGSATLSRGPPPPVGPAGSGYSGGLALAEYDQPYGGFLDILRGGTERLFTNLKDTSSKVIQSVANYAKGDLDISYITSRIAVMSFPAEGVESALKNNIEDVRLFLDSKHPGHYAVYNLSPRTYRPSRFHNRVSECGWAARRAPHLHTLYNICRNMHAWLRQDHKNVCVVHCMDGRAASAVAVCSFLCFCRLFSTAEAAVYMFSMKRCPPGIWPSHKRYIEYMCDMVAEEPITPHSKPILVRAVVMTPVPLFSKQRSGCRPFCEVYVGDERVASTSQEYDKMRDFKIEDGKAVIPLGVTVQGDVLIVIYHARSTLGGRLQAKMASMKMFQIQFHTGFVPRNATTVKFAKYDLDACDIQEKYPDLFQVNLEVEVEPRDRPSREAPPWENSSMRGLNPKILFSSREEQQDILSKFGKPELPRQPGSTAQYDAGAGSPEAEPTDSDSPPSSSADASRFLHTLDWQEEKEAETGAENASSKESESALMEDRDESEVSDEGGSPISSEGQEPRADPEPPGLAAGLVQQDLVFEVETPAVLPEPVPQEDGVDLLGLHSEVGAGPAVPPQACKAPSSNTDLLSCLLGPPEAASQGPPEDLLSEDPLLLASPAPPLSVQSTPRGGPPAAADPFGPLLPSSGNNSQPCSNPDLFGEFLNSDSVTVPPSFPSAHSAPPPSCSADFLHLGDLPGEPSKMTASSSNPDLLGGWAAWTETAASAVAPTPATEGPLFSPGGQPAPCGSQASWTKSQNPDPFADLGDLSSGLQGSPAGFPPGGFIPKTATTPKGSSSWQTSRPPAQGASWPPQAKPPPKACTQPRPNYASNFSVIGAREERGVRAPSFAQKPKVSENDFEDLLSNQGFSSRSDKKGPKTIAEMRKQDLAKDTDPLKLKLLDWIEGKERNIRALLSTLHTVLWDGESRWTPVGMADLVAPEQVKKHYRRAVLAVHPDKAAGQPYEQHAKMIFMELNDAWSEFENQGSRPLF

[10] = molecular target: MAP kinase-interacting serine/threonine-protein kinase 2 (Homo sapiens, UniProt Q9HBH9); assay: Inhibition of MNK2 (unknown origin)
Chain of MAP kinase-interacting serine/threonine-protein kinase 2 (Q9HBH9 whole entry): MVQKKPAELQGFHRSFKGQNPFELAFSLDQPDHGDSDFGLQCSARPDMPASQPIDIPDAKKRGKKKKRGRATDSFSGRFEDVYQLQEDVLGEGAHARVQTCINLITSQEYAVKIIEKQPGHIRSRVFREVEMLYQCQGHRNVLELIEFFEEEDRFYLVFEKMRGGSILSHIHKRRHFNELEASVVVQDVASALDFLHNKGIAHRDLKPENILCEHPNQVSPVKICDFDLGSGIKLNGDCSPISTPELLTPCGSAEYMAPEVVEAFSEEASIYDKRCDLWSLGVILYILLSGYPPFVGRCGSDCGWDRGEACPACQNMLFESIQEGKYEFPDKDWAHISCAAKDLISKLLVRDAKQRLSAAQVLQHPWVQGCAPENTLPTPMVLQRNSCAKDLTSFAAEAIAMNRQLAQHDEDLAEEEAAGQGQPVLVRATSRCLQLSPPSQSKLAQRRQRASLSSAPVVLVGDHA

[11] = molecular target: Death-associated protein kinase 3 (Homo sapiens, UniProt O43293); assay: Inhibition of DAPK3 (unknown origin)
[12] = molecular target: T3, Homeodomain-interacting protein kinase 4 (Homo sapiens, UniProt Q8NE63); assay: Inhibition of HIPK4 (unknown origin)
T3 sequence (Q8NE63 whole entry): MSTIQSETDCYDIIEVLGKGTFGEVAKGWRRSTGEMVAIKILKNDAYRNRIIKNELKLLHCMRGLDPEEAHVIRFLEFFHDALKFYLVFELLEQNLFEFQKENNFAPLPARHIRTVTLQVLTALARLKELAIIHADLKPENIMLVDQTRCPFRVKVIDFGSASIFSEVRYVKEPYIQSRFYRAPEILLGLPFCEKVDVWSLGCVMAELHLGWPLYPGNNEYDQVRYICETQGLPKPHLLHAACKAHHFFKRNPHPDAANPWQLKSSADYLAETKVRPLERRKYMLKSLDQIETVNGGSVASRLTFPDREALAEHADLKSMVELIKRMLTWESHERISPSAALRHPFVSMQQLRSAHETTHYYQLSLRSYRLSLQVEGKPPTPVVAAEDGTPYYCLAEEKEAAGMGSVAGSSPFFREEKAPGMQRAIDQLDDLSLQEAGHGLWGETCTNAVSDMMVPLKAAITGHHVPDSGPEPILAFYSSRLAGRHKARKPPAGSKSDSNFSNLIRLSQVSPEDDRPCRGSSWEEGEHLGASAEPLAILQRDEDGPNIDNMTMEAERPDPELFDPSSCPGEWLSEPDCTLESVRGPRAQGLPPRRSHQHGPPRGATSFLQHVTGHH

[13] = Inhibition of CK2A2 (unknown origin); set-up: species or system Homo sapiens
[14] = molecular target: Myotonin-protein kinase (Homo sapiens, UniProt Q09013); assay: Inhibition of DMPK1 (unknown origin)
[15] = Inhibition of MEK (unknown origin); set-up: species or system Homo sapiens
[16] = molecular target: Rho-associated protein kinase 2 (Homo sapiens, UniProt O75116); assay: Inhibition of ROCK2 (unknown origin)
Chain of Rho-associated protein kinase 2 (O75116 whole entry): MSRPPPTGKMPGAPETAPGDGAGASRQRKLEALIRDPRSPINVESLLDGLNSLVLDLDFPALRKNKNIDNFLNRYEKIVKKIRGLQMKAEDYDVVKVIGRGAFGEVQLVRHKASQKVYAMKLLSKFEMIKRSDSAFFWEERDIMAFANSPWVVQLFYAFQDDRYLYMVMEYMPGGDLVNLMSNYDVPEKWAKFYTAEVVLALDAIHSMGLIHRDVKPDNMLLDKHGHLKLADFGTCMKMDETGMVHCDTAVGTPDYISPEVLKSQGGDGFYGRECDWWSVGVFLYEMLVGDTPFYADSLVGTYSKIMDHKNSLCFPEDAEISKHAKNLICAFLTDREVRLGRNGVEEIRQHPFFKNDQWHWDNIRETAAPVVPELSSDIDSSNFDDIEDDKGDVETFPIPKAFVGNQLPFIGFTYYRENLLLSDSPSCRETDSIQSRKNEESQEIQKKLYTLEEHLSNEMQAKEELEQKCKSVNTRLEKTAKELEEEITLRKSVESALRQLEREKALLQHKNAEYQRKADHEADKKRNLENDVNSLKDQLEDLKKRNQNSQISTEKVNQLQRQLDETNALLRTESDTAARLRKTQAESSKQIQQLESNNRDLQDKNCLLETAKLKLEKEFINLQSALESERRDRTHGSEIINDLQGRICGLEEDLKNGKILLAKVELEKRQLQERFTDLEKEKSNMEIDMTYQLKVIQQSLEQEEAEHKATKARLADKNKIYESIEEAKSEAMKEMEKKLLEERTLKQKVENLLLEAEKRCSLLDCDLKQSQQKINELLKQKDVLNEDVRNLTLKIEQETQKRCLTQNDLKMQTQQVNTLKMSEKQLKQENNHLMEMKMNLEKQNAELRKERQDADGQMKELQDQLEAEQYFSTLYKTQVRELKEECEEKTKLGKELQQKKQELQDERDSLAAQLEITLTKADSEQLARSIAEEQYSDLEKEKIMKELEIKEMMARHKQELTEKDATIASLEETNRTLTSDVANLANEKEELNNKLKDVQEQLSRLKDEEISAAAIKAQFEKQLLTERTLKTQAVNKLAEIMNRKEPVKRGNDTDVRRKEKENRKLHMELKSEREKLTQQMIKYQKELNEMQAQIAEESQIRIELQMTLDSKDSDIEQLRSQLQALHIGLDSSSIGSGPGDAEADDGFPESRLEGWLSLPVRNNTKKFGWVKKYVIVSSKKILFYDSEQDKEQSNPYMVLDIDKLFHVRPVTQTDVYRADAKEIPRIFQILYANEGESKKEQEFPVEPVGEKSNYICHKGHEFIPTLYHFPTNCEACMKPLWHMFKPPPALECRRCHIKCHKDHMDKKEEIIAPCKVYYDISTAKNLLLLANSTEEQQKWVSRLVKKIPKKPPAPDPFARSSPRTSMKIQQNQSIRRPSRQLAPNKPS

[17] = molecular target: Tyrosine-protein kinase receptor TYRO3 (Homo sapiens, UniProt Q06418); assay: Inhibition of TYRO3 (unknown origin)
[18] = Cardiotoxicity in aortic ring (unknown origin) assessed as relaxation of phenylephrine induced aortic ring contraction at 10 uM incubated for 1 hr; assay type: toxicity, tissue-based, Aorta; set-up: scale not given: the % may be the effect or the level left; details: human
[19] = molecular target: Dual specificity protein kinase CLK1 (Homo sapiens, UniProt P49759); assay: Inhibition of CLK1 (unknown origin)
[20] = molecular target: Dual specificity protein kinase CLK4 (Homo sapiens, UniProt Q9HAZ1); assay: Inhibition of CLK4 (unknown origin)
[21] = molecular target: T1, AP2-associated protein kinase 1; assay: Inhibition of full length human AAK1 expressed in HEK293F cells assessed as suppression of AP2 phosphorylation measured after 3 hrs by Western blot analysis based cellular assay; assay type: cell-based
[22] = molecular target: MAP kinase-interacting serine/threonine-protein kinase 1 (Homo sapiens, UniProt Q9BUB5); assay: Inhibition of MNK1 (unknown origin)
[23] = Inhibition of IGFR (unknown origin); set-up: species or system Homo sapiens
[24] = molecular target: Myosin light chain kinase 2, skeletal/cardiac muscle (Homo sapiens, UniProt Q9H1R3); assay: Inhibition of MYLK2 (unknown origin)
[25] = molecular target: Citron Rho-interacting kinase (Homo sapiens, UniProt O14578); assay: Inhibition of CRIK (unknown origin)
[26] = molecular target: Tyrosine-protein kinase JAK2 (Homo sapiens, UniProt O60674); assay: Inhibition of JAK2 (unknown origin)
[27] = molecular target: T4, Dual specificity mitogen-activated protein kinase kinase 1 (Homo sapiens, UniProt Q02750); assay: Inhibition of MEK1/MAP2K1 (unknown origin)
T4 sequence (Q02750 whole entry): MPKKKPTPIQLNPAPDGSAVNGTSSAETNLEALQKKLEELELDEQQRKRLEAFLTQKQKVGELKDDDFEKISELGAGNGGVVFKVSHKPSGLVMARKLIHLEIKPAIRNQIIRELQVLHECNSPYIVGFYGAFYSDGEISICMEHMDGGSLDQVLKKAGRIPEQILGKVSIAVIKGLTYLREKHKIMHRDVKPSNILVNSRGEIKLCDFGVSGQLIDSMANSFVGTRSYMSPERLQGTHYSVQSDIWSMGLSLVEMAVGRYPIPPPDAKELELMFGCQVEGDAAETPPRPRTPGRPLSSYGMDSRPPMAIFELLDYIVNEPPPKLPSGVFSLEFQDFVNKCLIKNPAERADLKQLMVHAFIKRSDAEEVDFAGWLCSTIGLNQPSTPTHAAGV

[28] = molecular target: Serine/threonine-protein kinase N2 (Homo sapiens, UniProt Q16513); assay: Inhibition of PKN2 (unknown origin)
[29] = molecular target: STE20/SPS1-related proline-alanine-rich protein kinase (Homo sapiens, UniProt Q9UEW8); assay: Inhibition of STLK3 (unknown origin)
[30] = molecular target: Serine/threonine-protein kinase tousled-like 1 (Homo sapiens, UniProt Q9UKI8); assay: Inhibition of TLK1 (unknown origin)
[31] = molecular target: Serine/threonine-protein kinase tousled-like 2 (Homo sapiens, UniProt Q86UE8); assay: Inhibition of TLK2 (unknown origin)
[32] = molecular target: T4, Dual specificity mitogen-activated protein kinase kinase 1; assay: Inhibition of MEK1 (unknown origin)
[33] = molecular target: T4, Dual specificity mitogen-activated protein kinase kinase 1; assay: Inhibition of MAP2K1 (unknown origin)
[34] = molecular target: Aurora kinase C (Homo sapiens, UniProt Q9UQB9); assay: Inhibition of AURC (unknown origin)
[35] = molecular target: Protein kinase C beta type (Homo sapiens, UniProt P05771); assay: Inhibition of PKCb2 (unknown origin)

T1 sequence (Q2M2I8 whole entry): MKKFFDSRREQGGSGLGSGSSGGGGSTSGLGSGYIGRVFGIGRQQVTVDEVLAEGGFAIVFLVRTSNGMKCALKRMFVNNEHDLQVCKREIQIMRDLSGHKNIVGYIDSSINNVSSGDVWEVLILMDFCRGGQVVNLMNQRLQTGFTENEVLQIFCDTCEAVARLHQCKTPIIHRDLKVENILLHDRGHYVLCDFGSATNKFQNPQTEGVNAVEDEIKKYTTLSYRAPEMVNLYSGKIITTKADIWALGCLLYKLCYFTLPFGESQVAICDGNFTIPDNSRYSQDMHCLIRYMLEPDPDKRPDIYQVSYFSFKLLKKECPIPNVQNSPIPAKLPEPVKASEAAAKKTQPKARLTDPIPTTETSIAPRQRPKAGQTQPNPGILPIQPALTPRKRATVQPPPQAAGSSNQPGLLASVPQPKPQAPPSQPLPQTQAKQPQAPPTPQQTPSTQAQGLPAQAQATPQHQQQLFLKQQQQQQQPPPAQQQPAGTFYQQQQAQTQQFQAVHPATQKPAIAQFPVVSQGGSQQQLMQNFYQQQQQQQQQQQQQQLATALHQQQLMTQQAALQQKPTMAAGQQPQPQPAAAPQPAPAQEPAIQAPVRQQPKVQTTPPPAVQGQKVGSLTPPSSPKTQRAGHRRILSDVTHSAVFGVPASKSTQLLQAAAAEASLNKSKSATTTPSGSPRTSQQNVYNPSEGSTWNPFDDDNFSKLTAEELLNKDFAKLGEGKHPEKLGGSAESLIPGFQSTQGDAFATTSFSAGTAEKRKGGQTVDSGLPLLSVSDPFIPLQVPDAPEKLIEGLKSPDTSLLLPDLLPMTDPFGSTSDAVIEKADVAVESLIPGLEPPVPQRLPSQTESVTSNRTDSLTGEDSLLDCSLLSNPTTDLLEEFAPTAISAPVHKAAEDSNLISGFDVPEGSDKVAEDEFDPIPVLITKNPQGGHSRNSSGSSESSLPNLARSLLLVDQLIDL

Compound: COC(=O)Nc1cc(-c2ccc(OC[C@@](C)(N)CC(C)C)c(C(F)F)n2)ccn1
- pIC50 [1]: 9.10
- pKi [2]: 10.15
- remaining at 10 min, 0.5 µM [3]: 77%
- remaining at 10 min, 0.5 µM [4]: 91%
- remaining at 10 min, 0.5 µM [5]: 84%
- pIC50 [6]: < 4.70
- pIC50 [7]: 7.70
- pIC50 [8]: 6.25
- pIC50 [9]: 6.80
- pIC50 [10]: 6.92
- pIC50 [11]: 5.96
- pIC50 [12]: 6.19
- pIC50 [13]: 6.17
- pIC50 [14]: 5.82
- pIC50 [15]: 6.21
- pIC50 [16]: 6.85
- pIC50 [17]: 5.89
- Activity [18]: 89%

Compound: COC(=O)Nc1cc(-c2cnc(OC[C@@](C)(N)CC(C)C)c(C#N)c2)ccn1
- pIC50 [1]: 9.00
- pKi [2]: 9.82
- remaining at 10 min, 0.5 µM [3]: 95%
- remaining at 10 min, 0.5 µM [4]: 80%
- remaining at 10 min, 0.5 µM [5]: 86%
- pIC50 [6]: 5.66
- pIC50 [10]: 6.05
- pIC50 [16]: 5.96
- pIC50 [19]: 5.77
- pIC50 [20]: 6.23
- Activity [18]: 95%

Compound: CC(C)C[C@](C)(N)COc1cnc(-c2ccnc(Cl)c2)cc1C(F)F
- pIC50 [1]: 9.10
- pIC50 [21]: 8.57
- remaining at 10 min, 0.5 µM [3]: 92%
- remaining at 10 min, 0.5 µM [4]: 93%
- remaining at 10 min, 0.5 µM [5]: 93%
- pIC50 [6]: < 4.70
- pIC50 [7]: 6.59
- pIC50 [22]: 6.31
- pIC50 [23]: 5.77
- Activity [18]: 81%

Compound: COC(=O)Nc1cc(-c2ccc(OC[C@@](C)(N)CC(C)C)c(Cl)n2)ccn1
- pIC50 [1]: 9.30
- pKi [2]: 9.77
- pIC50 [21]: 8.92
- remaining at 10 min, 0.5 µM [3]: 93%
- remaining at 10 min, 0.5 µM [4]: 99%
- remaining at 10 min, 0.5 µM [5]: 72%
- pIC50 [6]: < 4.70
- pIC50 [7]: 7.52
- pIC50 [8]: 6.09
- pIC50 [22]: 6.92
- pIC50 [10]: 5.92
- pIC50 [24]: 6.19
- pIC50 [25]: 7.05
- pIC50 [11]: 5.96
- pIC50 [12]: 5.96
- pIC50 [26]: 5.80
- pIC50 [27]: 5.92
- pIC50 [28]: 6.85
- pIC50 [29]: 5.85
- pIC50 [30]: 5.92
- pIC50 [31]: 5.85
- Activity [18]: 74%

Compound: COC(=O)Nc1cc(-c2cnc(OC[C@@](C)(N)CC(C)C)c(Cl)c2)ccn1
- pIC50 [1]: 9.40
- pKi [2]: 9.96
- pIC50 [21]: 8.38
- remaining at 10 min, 0.5 µM [3]: 90%
- remaining at 10 min, 0.5 µM [4]: 73%
- remaining at 10 min, 0.5 µM [5]: 65%
- pIC50 [6]: < 4.70
- pIC50 [7]: 8.22
- pIC50 [12]: 5.89
- pIC50 [16]: 5.96
- pIC50 [20]: 6.13
- pIC50 [32]: 5.74
- pIC50 [33]: 5.73
- Activity [18]: 87%

Compound: Cc1cc(-c2cc(C(F)F)c(OC[C@@](C)(N)CC(C)C)cn2)ccn1
- pIC50 [1]: 9.30
- pKi [2]: 9.74
- pIC50 [21]: 9.05
- remaining at 10 min, 0.5 µM [3]: 84%
- remaining at 10 min, 0.5 µM [4]: 81%
- remaining at 10 min, 0.5 µM [5]: 76%
- pIC50 [6]: < 4.70
- pIC50 [7]: 6.74
- pIC50 [22]: 6.60
- pIC50 [24]: 6.46
- pIC50 [25]: 6.12
- pIC50 [34]: 6.27
- pIC50 [35]: 5.80
- Activity [18]: 85%
